The values below come from paper PMC10302299, “Spruce Balm-Based Semisolid Vehicles for Wound Healing: Effect of Excipients on Rheological Properties and Ex Vivo Skin Permeation” (Pharmaceutics, 2023).

Read-outs that look alike come from different tables or passages of the source.

For series [1] the following is noted: cited from earlier work.
Series [2] can be described thus: Ex vivo skin permeation, static Franz-type diffusion cells, HPLC-DAD relative quantification. It is filed as in vitro ADME, porcine. As to conditions: for total permeated amounts (AUC), comparison of the two ointments: after 32 h, lard ointment versus wool wax/castor oil ointment; for Enhancement Factor: mean flux from lard versus wool wax/castor oil; for Mean Flux Based on AUC/cm^2/h (relative mass flux): infinite dose 500 mg, 32 °C, n = 9 cells; for time after which detectable in acceptor samples: wool wax/castor oil and Picea-Salbe ointments. On the procedure: Skin permeation studies were performed using dermatomed porcine ear skin and static Franz-type diffusion cells (PermeGear, Hellertown, PA, USA, permeation area of 0.95 cm^2, acceptor volume of 2 mL). Porcine ears were obtained after sacrifice from a local abattoir (Johann Gantner GmbH, Gemeinde Hollabrunn, Austria, male and female animals at six months of age). The ears were cleaned under running water and were dried and stored at −18 °C until use.
Fresh vehicles were prepared 48 h before the start of the experiments. Skin from the dorsal side of the ears was cut to a thickness of 400 µm with a dermatome (Aesculap GA 630 DBP, Aesculap AG, Tuttlingen, Germany). Hair was removed with scissors. The skin was cut into 1 × 1 cm pieces and was clamped between donor and acceptor chamber. The acceptor medium consisted of a mixture of phosphate-buffered saline and ethanol (60:40% v/v) to ensure sink conditions. The phosphate-buffered saline was prepared as described in the Pharmacopoeia Europaea (0.012 M, pH of 7.4, 0.238% w/w sodium monohydrogen phosphate, 0.019% w/w potassium dihydrogen phosphate, and 0.8% w/w sodium chloride). Before starting the experiments, the transepidermal water loss (TEWL) was measured with a closed-chamber device and a coupling adapter (Aquaflux® AF200, Biox Systems Ltd., London, UK) to ensure consistent skin quality and barrier function.
The ointments were applied to the donor chambers at infinite dose conditions (500 mg of formulation). The donor compartment and sampling arm were occluded with Parafilm to prevent evaporation of sample or acceptor fluid. The diffusion cells were kept in a water bath at 32 °C to simulate skin surface temperature. Magnetic stirring was employed to avoid concentration layers within the acceptor fluid. Cells were regularly checked for air bubbles. After predefined intervals (2, 4, 6, 8, 24, 28, and 32 h), an aliquot of 200 μL of acceptor medium was taken for analysis and was replaced with fresh acceptor medium at 32 °C.
The most suitable formulation was chosen for analysis of permeation potential as well as the commercial product Picea-Salbe®. Three individual permeation experiments with n = 3 cells were performed for formulations and controls. The final results depict mean values ± SDs of n = 9 cells per formulation. As controls, the respective ointment bases without PSB as well as the plain acceptor medium alone were used.
For the analysis of samples drawn from Franz diffusion cells, a Shimadzu HPLC instrumentation with diode array detection (SHIMADZU Autosampler SIL-20AC HAT, SHIMADZU Column Oven CTO-20AC, SHIMADZU Communications Bus Module CBM-20A, SHIMADZU Degasser DGU-20A5, SHIMADZU Diode Array Detector SPD-M20A, SHIMADZU Liquid Chromatograph LC-20AD, SHIMADZU LabSolutions Software 5.81, Shimadzu, Kyoto, Japan) was used. A reversed-phase C18 column (LiChrospher 100 RP18e, 5 μm, 250 × 4 mm, Merck KGaA, Darmstadt, Germany) was employed as stationary phase. Double-distilled water + 0.1% formic acid (solvent A) and acetonitrile + 0.1% formic acid (solvent B) served as mobile phase, and gradient elution at 1 mL/min flow rate was applied as follows: 15% solvent B rose to 95% solvent B within 45 min (rate of 1.77%/min) followed by 5 min washing step at 98% solvent B and re-equilibration for 10 min with 15% solvent B. Samples drawn from Franz diffusion cells were centrifuged, and 10 μL were injected into the system. PSB samples were dissolved in acetone to a final concentration of 5 mg/mL, and 2 μL were analyzed. […] Peak areas (AUC) were obtained using the SHIMADZU LabSolutions Software 5.81 (Shimadzu, Kyoto, Japan) and were further utilized for interpretation of data.

[3] abbreviates: vehicle lard (Picea-Salbe, 20% spruce balm).
The mark [4] stands for this setting: vehicle wool wax/castor oil with 20% PSB (batch PSB5).

On to `COc1cc(/C=C/C(=O)O)ccc1O` [Ferulic acid], for which the “Effects contributing to wound healing” value in series [1] (Hydroxycinnamic acids) is “antioxidant, antimicrobial, and anti-inflammatory effects [19]”.

As to `C=C[C@]1(C)C=C2CC[C@@H]3[C@](C)(CCC[C@@]3(C)C(=O)O)[C@H]2CC1` [Sandaracopimaric acid], the “Effects contributing to wound healing” value in series [1] (Diterpene resin acids (302 Da)) is “re-epithelialization boosting [9], antimicrobial [24, 25, 26, 27], anti-inflammatory [28, 29, 30], and antioxidant effects [31]”.

Turning to `C=C[C@@]1(C)C=C2CC[C@@H]3[C@](C)(CCC[C@@]3(C)C(=O)O)[C@H]2CC1` [Pimaric acid], the “Effects contributing to wound healing” value in series [1] (Diterpene resin acids (302 Da)) is “re-epithelialization boosting [9], antimicrobial [24, 25, 26, 27], anti-inflammatory [28, 29, 30], and antioxidant effects [31]”.

As to `O=C(O)C=Cc1ccc(O)cc1` [p-Coumaric acid], in series [1] (Hydroxycinnamic acids), the “Effects contributing to wound healing” value is “antioxidant, antimicrobial, and anti-inflammatory effects [19]”.

Take `CC(C)c1ccc2c(c1)CC[C@H]1[C@](C)(C(=O)O)CCC[C@]21C` [dehydroabietic acid, Dehydroabietic acid]: in series [1] (Diterpene resin acids (300 Da)), the “Effects contributing to wound healing” value was “re-epithelialization boosting [9], anti-inflammatory [23], and antimicrobial effects [24]”. For the same molecule, in series [2], the “total permeated amounts (AUC), comparison of the two ointments” value is recorded as “highly comparable”; the “Enhancement Factor” value is 1.1; the “time after which detectable in acceptor samples” value is reported as 8 h. In series [2] (setting [3]), the “Mean Flux Based on AUC/cm^2/h (relative mass flux)” value was 24.041 ± 7.099 AUC/cm^2/h. The “Mean Flux Based on AUC/cm^2/h (relative mass flux)” value in series [2] (setting [4]) stood at 21.848 ± 7.791 AUC/cm^2/h.

For `CC(C)(O)c1ccc2c(c1)[C@H](O)CC1[C@](C)(C(=O)O)CCC[C@]21C` (stereo partly drawn) [7α,15-Dihydroxy-dehydroabietic acid], the “Effects contributing to wound healing” value in series [1] (Hydroxylated resin acids) was “re-epithelialization boosting [9], antimicrobial [22], and anti-inflammatory effects [23]”.

For `CC(C)C1=CC[C@H]2C(=C1)CC[C@@H]1[C@]2(C)CCC[C@@]1(C)C(=O)O` [Levopimaric acid], in series [1] (Diterpene resin acids (302 Da)), the “Effects contributing to wound healing” value is “re-epithelialization boosting [9], antimicrobial [24, 25, 26, 27], anti-inflammatory [28, 29, 30], and antioxidant effects [31]”.

For `O=C(O)/C=C/c1ccc(O)c(O)c1` [Caffeic acid], the “Effects contributing to wound healing” value in series [1] (Hydroxycinnamic acids) was “antioxidant, antimicrobial, and anti-inflammatory effects [19]”.

For `CC(C)C1=CC2=CC[C@@H]3[C@](C)(CCC[C@@]3(C)C(=O)O)[C@H]2CC1` [Abietic acid], in series [1] (Diterpene resin acids (302 Da)), the “Effects contributing to wound healing” value was “re-epithelialization boosting [9], antimicrobial [24, 25, 26, 27], anti-inflammatory [28, 29, 30], and antioxidant effects [31]”.

Take `CC(C)c1ccc2c(c1)C(O)CC1[C@](C)(C(=O)O)CCC[C@]21C` (some centres unmarked) [7-Hydroxy-dehydroabietic acid]: in series [1] (Hydroxylated resin acids), the “Effects contributing to wound healing” value is “re-epithelialization boosting [9], antimicrobial [22], and anti-inflammatory effects [23]”.

As for Pinoresinol, the “Effects contributing to wound healing” value in series [1] (Lignans) was “antifungal [20], antioxidant, anti-inflammatory [21], and re-epithelialization boosting effects [9]”.

In the case of `CC(C)(O)c1ccc2c(c1)[C@@H](O)CC1[C@](C)(C(=O)O)CCC[C@]21C` (stereo partly drawn) [7β,15-Dihydroxy-dehydroabietic acid], in series [1] (Hydroxylated resin acids), the “Effects contributing to wound healing” value was “re-epithelialization boosting [9], antimicrobial [22], and anti-inflammatory effects [23]”.

Turning to `CC(C)(O)c1ccc2c(c1)CC[C@H]1[C@](C)(C(=O)O)CCC[C@]21C` [15-hydroxy-dehydroabietic acid, 15-Hydroxy-dehydroabietic acid], in series [1] (Hydroxylated resin acids), the “Effects contributing to wound healing” value was “re-epithelialization boosting [9], antimicrobial [22], and anti-inflammatory effects [23]”. Moreover, in series [2], the “total permeated amounts (AUC), comparison of the two ointments” value is given as “a similar trend was observed”; the “Enhancement Factor” value is given as 1.8; the “time after which detectable in acceptor samples” value is on record as 24 h. Further, the “Mean Flux Based on AUC/cm^2/h (relative mass flux)” value in series [2] (setting [3]) turned out to be 25.558 ± 9.673 AUC/cm^2/h. Further, the “Mean Flux Based on AUC/cm^2/h (relative mass flux)” value in series [2] (setting [4]) was found to be 13.606 ± 6.196 AUC/cm^2/h.

For the molecule `CC(C)=C1C=C2CCC3C(C)(C(=O)O)CCCC3(C)C2CC1` (centres unmarked) [Neoabietic acid], the “Effects contributing to wound healing” value in series [1] (Diterpene resin acids (302 Da)) was “re-epithelialization boosting [9], antimicrobial [24, 25, 26, 27], anti-inflammatory [28, 29, 30], and antioxidant effects [31]”.

With `CC(C)C1=CC2=C(CC1)[C@@]1(C)CCC[C@@](C)(C(=O)O)[C@@H]1CC2` [Palustric acid], the “Effects contributing to wound healing” value in series [1] (Diterpene resin acids (302 Da)) is “re-epithelialization boosting [9], antimicrobial [24, 25, 26, 27], anti-inflammatory [28, 29, 30], and antioxidant effects [31]”.

As for `C=C[C@@]1(C)CC[C@H]2C(=CC[C@@H]3[C@]2(C)CCC[C@@]3(C)C(=O)O)C1` [Isopimaric acid], the “Effects contributing to wound healing” value in series [1] (Diterpene resin acids (302 Da)) is “re-epithelialization boosting [9], antimicrobial [24, 25, 26, 27], anti-inflammatory [28, 29, 30], and antioxidant effects [31]”.
